Our source for the IC50, EC50 and CC50 values is US11236087B2, “Highly active pyrazolo-piperidine substituted indole-2-carboxamides active against the hepatitis B virus (HBV)” (AiCuris GmbH & Co. KG, priority 2017, dated 2022).

For series [1], the target named is T1, HBV core protein (UniProt P03146).
T1 construct: fused on or other part: BODIPY-FL maleimide label on the C-terminal Cys150
The experiment in a line: Biochemical capsid assembly assay (fluorescence quenching). Set-up: species or system hepatitis B virus. To be noted: read-out: Assembly Activity (IC50); BODIPY-FL labelled core protein, 300 μM NaCl, read 6 min after start. As to the method:
Biochemical Capsid Assembly Assay
The screening for assembly effector activity was done based on a fluorescence quenching assay published by Zlotnick et al. (2007). The C-terminal truncated core protein containing 149 amino acids of the N-terminal assembly domain fused to a unique cysteine residue at position 150 and was expressed in E. coli using the pET expression system (Merck Chemicals, Darmstadt). Purification of core dimer protein was performed using a sequence of size exclusion chromatography steps. In brief, the cell pellet from 1 L BL21 (DE3) Rosetta2 culture expressing the coding sequence of core protein cloned NdeI/XhoI into expression plasmid pET21b was treated for 1 h on ice with a native lysis buffer (Qproteome Bacterial Protein Prep Kit; Qiagen, Hilden). After a centrifugation step the supernatant was precipitated during 2 h stirring on ice with 0.23 g/ml of solid ammonium sulfate. Following further centrifugation the resulting pellet was resolved in buffer A (100 mM Tris, pH 7.5; 100 mM NaCl; 2 mM DTT) and was subsequently loaded onto a buffer A equilibrated CaptoCore 700 column (GE HealthCare, Frankfurt). The column flow through containing the assembled HBV capsid was dialyzed against buffer N (50 mM NaHCO3 pH 9.6; 5 mM DTT) before urea was added to a final concentration of 3M to dissociate the capsid into core dimers for 1.5 h on ice. The protein solution was then loaded onto a 1 L Sephacryl S300 column. After elution with buffer N core dimer containing fractions were identified by SDS-PAGE and subsequently pooled and dialyzed against 50 mM HEPES pH 7.5; […]. To improve the assembly capacity of the purified core dimers a second round of assembly and disassembly starting with the addition of 5 M NaCl and including the size exclusion chromatography steps described above was performed. From the last chromatography step core dimer containing fractions were pooled and stored in aliquots at concentrations between 1.5 to 2.0 mg/ml at −80° C.
Immediately before labelling the core protein was reduced by adding freshly prepared DTT in a final concentration of 20 mM. After 40 min incubation on ice storage buffer and DTT was removed using a Sephadex G-25 column (GE HealthCare, Frankfurt) and 50 mM HEPES, pH 7.5. For labelling 1.6 mg/ml core protein was incubated at 4° C. and darkness overnight with BODIPY-FL maleimide (Invitrogen, Karlsruhe) in a final concentration of 1 mM. After labelling the free dye was removed by an additional desalting step using a Sephadex G-25 column. Labelled core dimers were stored in aliquots at 4° C. In the dimeric state the fluorescence signal of the labelled core protein is high and is quenched during the assembly of the core dimers to high molecular capsid structures. The screening assay was performed in black 384 well microtiter plates in a total assay volume of 10 μl using 50 mM HEPES pH 7.5 and 1.0 to 2.0 μM labelled core protein. Each screening compound was added in 8 different concentrations using a 0.5 log-unit serial dilution starting at a final concentration of 100 μM, 31.6 μM or 10 μM, In any case the DMSO concentration over the entire microtiter plate was 0.5%. The assembly reaction was started by the injection of NaCl to a final concentration of […] which induces the assembly process to approximately 25% of the maximal quenched signal. 6 min after starting the reaction the fluorescence signal was measured using a Clariostar plate reader (BMG Labtech, Ortenberg) with an excitation of 477 nm and an emission of 525 nm. As 100% and 0% assembly control HEPES buffer containing 2.5 M and 0 M NaCl was used. Experiments were performed thrice in triplicates. EC50 values were calculated by non-linear regression analysis using the Graph Pad Prism 6 software (GraphPad Software, La Jolla, USA).

Series [2] concerns HBV. Nature of the series: Determination of HBV DNA from the supernatants of HepAD38 cells (anti-HBV activity). The series is classed as cell-based, hepatitis B virus. To be noted: Hepatitis B virus, read-out: Cell Activity (EC50). The gist of the method:
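Supernatant viral DNA was measured by LightCycler qPCR, calibrated with pCH-9/3091 plasmid, 6 days after tetracycline-free HepAD38 cultures received half-log serial compound dilutions; untreated and tetracycline-treated cells served as controls; EC50 was fitted by non-linear regression.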

A short description of series [3]: Cell viability assay (AlamarBlue) in HepAD38 cells. To be noted: human. (In general: Resazurin is reduced to fluorescent resorufin, in cell work by metabolically active cells.)
Setting [4] is: 144 h, HBV DNA in HepAD38 supernatant, day 6, qPCR.

Read-outs that look alike come from different tables or passages of the source.

T1 sequence (P03146 whole entry, looked up, the tested form may be a part): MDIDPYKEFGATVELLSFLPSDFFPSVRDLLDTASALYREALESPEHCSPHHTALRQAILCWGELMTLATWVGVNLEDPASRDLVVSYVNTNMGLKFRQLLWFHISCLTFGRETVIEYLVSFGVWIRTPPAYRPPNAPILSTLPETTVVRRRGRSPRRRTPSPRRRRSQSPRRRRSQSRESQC

Take `O=C(c1cc2ccccc2[nH]1)N1CCc2[nH]nc(C3CCCO3)c2C1` (stereo not drawn) [Example 344, 2-[3-(oxolan-2-yl)-1H,4H,5H,6H,7H-pyrazolo[4,3-c]pyridine-5-carbonyl]-1H-indole]: the IC50 (as a rule, the point on the concentration scale where inhibition reaches its midpoint) in series [1] was less than 5 µM. Also, the EC50 (usually the concentration giving half of the maximal effect) in series [2] (setting [4]) is less than 1 µM. Also, the half-maximal cytotoxic concentration (CC50) (commonly the concentration giving 50% cytotoxicity) at 6 days in series [3] is greater than 10 µM.
Taken in the same sequence, the figures for `O=C(c1cc2ccccc2[nH]1)N1CCc2[nH]nc(C(=O)N3CC[C@H](O)C3)c2C1` [Example 157, (3S)-1-[5-(1H-indole-2-carbonyl)-1H,4H,5H,6H,7H-pyrazolo[4,3-c]pyridine-3-carbonyl]pyrrolidin-3-ol] were less than 100 µM, 1 to 25 µM and greater than 10 µM.
On to `O=C(c1cc2ccccc2[nH]1)N1CCc2[nH]nc(C34CC(C3)C4)c2C1` [Example 343, 2-(3-{bicyclo[1.1.1]pentan-1-yl}-1H,4H,5H,6H,7H-pyrazolo[4,3-c]pyridine-5-carbonyl)-1H-indole], for which, in series [1], the IC50 is less than 5 µM. Besides, the EC50 in series [2] (setting [4]) is less than 1 µM. Besides, the CC50 at 6 days in series [3] was greater than 10 µM.
With `Cc1cc(F)cc2[nH]c(C(=O)N3CCc4[nH]nc(C5CCCO5)c4C3)cc12` (stereo not drawn) [Example 342, 6-fluoro-4-methyl-2-[3-(oxolan-2-yl)-1H,4H,5H,6H,7H-pyrazolo[4,3-c]pyridine-5-carbonyl]-1H-indole], the IC50 in series [1] is less than 5 µM. For the same compound, the EC50 in series [2] (setting [4]) is less than 1 µM. This compound registered a CC50 at 6 days in series [3] greater than 10 µM.
As to `CCOC(=O)CCC1(N(C)C(=O)c2n[nH]c3c2CN(C(=O)c2cc4ccccc4[nH]2)CC3)CC1` [Example 246, ethyl 3-{1-[N-methyl 5-(1H-indole-2-carbonyl)-1H,4H,5H,6H,7H-pyrazolo[4,3-c]pyridine-3-amido]cyclopropyl}propanoate], the IC50 in series [1] was less than 100 µM. The EC50 in series [2] (setting [4]) was less than 100 µM. The compound further returned a CC50 at 6 days in series [3] greater than 10 µM.
For the compound `CN(CCCO)C(=O)c1n[nH]c2c1CN(C(=O)c1cc3ccccc3[nH]1)CC2` [Example 102, N-(3-hydroxypropyl)-5-(1H-indole-2-carbonyl)-N-methyl-1H,4H,5H,6H,7H-pyrazolo[4,3-c]pyridine-3-carboxamide], the IC50 in series [1] was less than 5 µM. Moreover, in series [2] (setting [4]), the EC50 was less than 1 µM. Moreover, in series [3], the CC50 at 6 days was greater than 100 µM.
Regarding `O=C(c1cc2ccccc2[nH]1)N1CCc2[nH]nc(C(=O)N3CCC[C@@H](O)C3)c2C1` [Example 161, (3R)-1-[5-(1H-indole-2-carbonyl)-1H,4H,5H,6H,7H-pyrazolo[4,3-c]pyridine-3-carbonyl]piperidin-3-ol], in series [1], the IC50 was in the range of 5 to 10 µM. Further, the EC50 in series [2] (setting [4]) was less than 1 µM. In addition, the CC50 at 6 days in series [3] is greater than 10 µM.
As for `O=C(c1cc2ccccc2[nH]1)N1CCc2[nH]nc(C(=O)N3CCCC3)c2C1` [Example 99, 2-[3-(pyrrolidine-1-carbonyl)-1H,4H,5H,6H,7H-pyrazolo[4,3-c]pyridine-5-carbonyl]-1H-indole], the IC50 in series [1] lay within 5 to 10 µM. Besides, the EC50 in series [2] (setting [4]) is 1 to 25 µM. Also, in series [3], the half-maximal cytotoxic concentration (CC50) at 6 days is greater than 100 µM.
Taken in the same sequence, the figures for `CN(C(=O)c1[nH]nc2c1CN(C(=O)c1cc3c(F)cc(F)cc3[nH]1)CC2)C1CC1` [Example 323, N-cyclopropyl-5-(4,6-difluoro-1H-indole-2-carbonyl)-N-methyl-2H,4H,5H,6H,7H-pyrazolo[4,3-c]pyridine-3-carboxamide] were less than 5 µM, less than 1 µM and greater than 10 µM.
With `O=C(c1cc2c(F)c(F)ccc2[nH]1)N1CCc2[nH]nc(C34CC(C3)C4)c2C1` [Example 332, 2-(3-{bicyclo[1.1.1]pentan-1-yl}-1H,4H,5H,6H,7H-pyrazolo[4,3-c]pyridine-5-carbonyl)-4,5-difluoro-1H-indole], the IC50 in series [1] was less than 5 µM. The EC50 in series [2] (setting [4]) was less than 1 µM. This compound had a CC50 at 6 days in series [3] greater than 10 µM.
On to `CC(C)OC(=O)[C@H](C)NP(=O)(OCCN(C)C(=O)c1n[nH]c2c1CN(C(=O)c1cc3c(Cl)cccc3[nH]1)CC2)Oc1ccccc1` (stereo partly drawn) [Example 67, propan-2-yl (2S)-2-{[(2-{1-[5-(4-chloro-1H-indole-2-carbonyl)-1H,4H,5H,6H,7H-pyrazolo[4,3-c]pyridin-3-yl]-N-methylformamido}ethoxy)(phenoxy)phosphoryl]amino}propanoate], for which the IC50 in series [1] is less than 5 µM. Also, the EC50 in series [2] (HePAD38, 144 h) is less than 1 µM. The same compound displayed a CC50 at 6 days in series [3] greater than 32 µM.
Regarding `COCC1(N(C)C(=O)c2n[nH]c3c2CN(C(=O)c2cc4ccccc4[nH]2)CC3)CC1` [Example 155, 5-(1H-indole-2-carbonyl)-N-[1-(methoxymethyl)cyclopropyl]-N-methyl-1H,4H,5H,6H,7H-pyrazolo[4,3-c]pyridine-3-carboxamide], the IC50 in series [1] was less than 5 µM. In addition, the EC50 in series [2] (setting [4]) was less than 1 µM. Moreover, the CC50 at 6 days in series [3] was greater than 10 µM.
Regarding `O=C(c1cc2ccccc2[nH]1)N1CCc2[nH]nc(C(=O)N3CCOCC34CC4)c2C1` [Example 195, 2-(3-{7-oxa-4-azaspiro[2.5]octane-4-carbonyl}-1H,4H,5H,6H,7H-pyrazolo[4,3-c]pyridine-5-carbonyl)-1H-indole], the IC50 in series [1] was in the range of 5 to 10 µM. The EC50 in series [2] (setting [4]) is less than 1 µM. In series [3], this compound came in with a CC50 at 6 days greater than 10 µM.
Turning to `CC(C)OC(=O)[C@H](C)NP(=O)(OCCN(C)C(=O)c1n[nH]c2c1CN(C(=O)c1cc3ccccc3[nH]1)CC2)Oc1ccccc1` (stereo partly drawn) [Example 71, propan-2-yl (2S)-2-{[(2-{1-[5-(1H-indole-2-carbonyl)-1H,4H,5H,6H,7H-pyrazolo[4,3-c]pyridin-3-yl]-N-methylformamido}ethoxy)(phenoxy)phosphoryl]amino}propanoate], the IC50 in series [1] was 5 to 10 µM. For the same compound, the EC50 in series [2] (HePAD38, 144 h) lay in the range of 1 to 25 µM. For the same compound, the CC50 at 6 days in series [3] is greater than 32 µM.
In the case of `CC(CO)N(C)C(=O)c1n[nH]c2c1CN(C(=O)c1cc3ccccc3[nH]1)CC2` (stereo not drawn) [Example 42, N-(1-hydroxypropan-2-yl)-5-(1H-indole-2-carbonyl)-N-methyl-1H,4H,5H,6H,7H-pyrazolo[4,3-c]pyridine-3-carboxamide], in series [1], the IC50 lay within 5 to 10 µM. For the same compound, the EC50 in series [2] (setting [4]) lay within 1 to 25 µM. Moreover, the CC50 at 6 days in series [3] was greater than 100 µM.
In the same order, the values of `CCN(C(=O)c1n[nH]c2c1CN(C(=O)c1cc3ccccc3[nH]1)CC2)C1(COC)CC1` [Example 296, N-ethyl-5-(1H-indole-2-carbonyl)-N-[1-(methoxymethyl)cyclopropyl]-1H,4H,5H,6H,7H-pyrazolo[4,3-c]pyridine-3-carboxamide] are less than 5 µM, less than 1 µM and greater than 10 µM.
Taken in the same sequence, the figures for `CCc1cccc2[nH]c(C(=O)N3CCc4n[nH]c(-c5cscn5)c4C3)cc12` [Example 18, 4-ethyl-2-[3-(1,3-thiazol-4-yl)-2H,4H,5H,6H,7H-pyrazolo[4,3-c]pyridine-5-carbonyl]-1H-indole] were less than 5 µM, less than 1 µM and 7.3 µM.
Consider `CN(CCO)C(=O)c1n[nH]c2c1CN(C(=O)c1cc3ccc(Cl)cc3[nH]1)CC2` [Example 57, 5-(6-chloro-1H-indole-2-carbonyl)-N-(2-hydroxyethyl)-N-methyl-1H,4H,5H,6H,7H-pyrazolo[4,3-c]pyridine-3-carboxamide], for which the IC50 in series [1] is less than 5 µM. The EC50 in series [2] (setting [4]) was less than 1 µM. This compound returned a CC50 at 6 days in series [3] greater than 100 µM.
